Consider two molecules from patent US20180085460A1, “METHODS OF TREATING PROSTATITIS” (Aquinox Pharmaceuticals (Canada) Inc., priority 2016, published 2018).

Holding throughout (format): in vivo
Test [1] has as its system carrageenan-induced prostatitis model in male Sprague-Dawley rats. Kind of test: Pelvic pain (von Frey filaments) in carrageenan-induced prostatitis model.
Test [2] shares this test system. Described as above. As for the experimental part: Animals were acclimatized to the laboratory conditions for at least 3 days before the start of experiments. Rats were housed in groups of 2 in polysulfone type Sealsafe plus GR900 cages (Tecniplast, Lyon, France) on a bed of wood chips with free access to food and water ad libitum. Species appropriate environmental enrichment was added to the cages. The animal house was maintained under artificial lighting 7:00 a.m. to 7:00 p.m. in a controlled ambient temperature of 22±2° C., and relative humidity maintained at 55±10%.
Mechanical stimulation was performed using von Frey filaments of different forces.
For each day of administration, the stock solution was allowed to equilibrate to room temperature under stirring, for at least 30 min.
Carrageenan was purchased from Sigma-Aldrich. Carrageenan (prepared fresh each day of injection) was dissolved in sterile physiological saline at a final concentration of 30 mg/mL (w/v).
Seven experimental groups of 10 animals were included in this study as described in the table below.
At D0, D+1, D+3 and D+7 administrations were performed 2 h prior to von Frey testing. […] On the morning of each experimental day, rats were weighed and administrations were performed at a volume of 5 mL/kg.
(§1) Surgical procedures were performed in morning, as follows: anaesthesia was induced by 5% isoflurane and maintained with 2.5% isoflurane for the duration of the procedure. The surgical area (lower abdomen above the penis) and the scrotal skin were shaved. An incision was made in the skin and abdominal wall to expose both ventral lobes of the prostate gland. Carrageenan (30 mg/mL) was injected in both right and left ventral lobes of the prostate (˜12.5 μL per lobe).
Control rats were injected with physiological saline under the same experimental conditions as carrageenan (i.e. i.prost., ˜12.5 μL per lobe).
After i.prost. injection, the wounds in both muscles were closed using absorbable suture and the skin layers were closed using permanent suture.
Pelvic pain was evaluated in a non-blinded manner by applying 6 von Frey filaments of increasing forces (0.16, 0.4, 0.6, 1, 1.4 and 2 g) to the scrotum area, with an interval of 5 seconds between each filament.
Prior to testing, the scrotal skin area designated for mechanical stimulation of each animal was shaved. Animals were placed on a raised wire mesh floor under individual transparent Plexiglas boxes and acclimatized for at least 30 min before starting the von Frey test. Filaments were then applied 1-2 seconds through the mesh floor with enough strength to cause the filament to slightly bend. Each filament was tested 3 times with an interval of 5 seconds between each application.
Nociceptive behavioral scores to von Frey filaments were assessed just before saline or carrageenan injection, in order to obtain basal values (D0), and at defined time points (D+1, D+3 and D+7) after saline or carrageenan injection.
Nociceptive behaviors were scored for each animal and each filament as follows: […]
This is another data set of the same source.

For test [3], the system named is ventral prostate lobes of carrageenan-injected male Sprague-Dawley rats. Kind of test: Ventral prostate lobes weight 7 days after carrageenan i.prost. injection. The following applies: AQX-1125 0.3, 1, 3 or 10 mg/kg p.o.; seven days after carrageenan injection. The method, then: The whole prostate and ventral prostate lobes were weighed using a Scout® Pro balance (OHAUS, Nänikon, Switzerland).
AQX-1125 (0.3, 1, 3 and 10 mg/kg) or saline vehicle were administered orally (p.o.) once a day from D−3 to D+7 for a total of 11 administrations. At D0, D+1, D+3 and D+7 administrations were performed 2 h prior to von Frey testing. […] On the morning of each experimental day, rats were weighed and administrations were performed at a volume of 5 mL/kg.
as §1
After blood sampling, rats were sacrificed by cervical dislocation and the whole prostates were rapidly collected and weighed. Then both ventral prostate lobes were dissected and weighed together.

For test [4], the system named is carrageenan-induced pelvic pain in male Sprague-Dawley rats. Kind of test: Previous study: carrageenan-induced pelvic pain, AQX-1125 3, 10 and 30 mg/kg. An excerpt: An animal model of inflammation-induced pelvic pain for inflammatory CP/CPPS was developed and validated using intraprostatic (i.prost.) injection of carrageenan in male Sprague-Dawley rats (adapted from Radhakrishnan, R. and Nallu, R. S., 2009. Development and characterization of a novel animal model of prostate inflammation-induced chronic pelvic pain, Inflammopharmacology, 17: 23-28). This animal model was characterized by both referred mechanical allodynia (decreased mechanical threshold in response to innocuous von Frey forces) and referred mechanical hyperalgesia (increased nociceptive scores in response to noxious von Frey forces) (Augé C. et al., 2012, Nociceptive measures in chronic prostatitis: a model of inflammation-induced pelvic pain in rats, 14th World Congress on Pain (Milan, Italy)).

[5] abbreviates: Ibuprofen 300 mg/kg p.o. once at D+3, 1 h prior to testing, p<0.001.

With `CC(C)Cc1ccc(C(C)C(=O)O)cc1` (racemic) [Ibuprofen, (RS)-2-(4-(2-methylpropyl)phenyl)propanoic acid], in test [1] (setting [5]), the “nociceptive scores vs vehicle” value is given as “decreases in nociceptive scores” and the “nociceptive threshold vs vehicle” value is “a significant increase in the nociceptive threshold was observed”. Moreover, the carrageenan-induced pelvic pain entry in test [1] (Ibuprofen 300 mg/kg, 1 h after oral administration) is “alleviated carrageenan-induced pelvic pain”.

As to `C=C1CC[C@H]2[C@H](CN)[C@@H]([C@@]3(C)CC[C@H](O)C[C@@H]3CO)CC[C@]12C` [AQX-1125, (1S,3S,4R)-4-((4R,7aS)-4-(aminomethyl)-7a-methyl-1-methyleneoctahydro-1H-inden-5-yl)-3-(hydroxymethyl)-4-methylcyclohexanol], the “nociceptive threshold vs vehicle” value in test [2] (AQX-1125 10 mg/kg p.o. once a day, D+1 p>0.05, D+3 and D+7 p<0.05) was “reached the significance level only at day 3 and 7”; in test [2] (AQX-1125 0.3, 1 and 3 mg/kg p.o. once a day, day 1, 3 and 7 post-carrageenan, p<0.05), “significantly and dose-dependently increased the nociceptive threshold”. Moreover, the “AUC (0.16-2 g) of nociceptive scores vs vehicle” value is “a significant effect was observed only at day 3 and 7” in test [2] (AQX-1125 10 mg/kg p.o., D+1 p>0.05, D+3 p<0.01, D+7 p<0.05); “significant decreases in AUC (0.16-2 g) were observed” in test [2] (AQX-1125 0.3, 1 and 3 mg/kg p.o., all tested time-points, p<0.01). For the same molecule, in test [2] (AQX-1125 0.3, 1, 3 and 10 mg/kg p.o., all tested time-points (D+1, D+3, D+7)), the “nociceptive scores vs vehicle” value is recorded as “decreases in nociceptive scores were observed”. Moreover, the “significance of effect on nociceptive scores” value in test [2] (AQX-1125 all doses, 10 mg/kg at D1 p=0.0638) is recorded as “reached significance, except for the 10 mg/kg dose at D1”. The “anti-nociceptive properties beyond the optimal dose” value in test [2] (AQX-1125 beyond 3 mg/kg (10 mg/kg p.o.)) is listed as “less pronounced anti-nociceptive properties”. Also, the carrageenan-induced pelvic pain result in test [2] (AQX-1125 daily oral treatments at 0.3, 1 and 3 mg/kg) is “significant and dose-related decreases in carrageenan-induced pelvic pain”. Further, the “dose at which maximal effect was reached” value in test [2] (AQX-1125 p.o. once a day, doses tested 0.3, 1, 3 and 10 mg/kg) is on record as 3 mg/kg; in test [4] (doses tested 3, 10 and 30 mg/kg p.o.) it was 3 mg/kg. The “anti-nociceptive properties on carrageenan-induced pelvic pain” value in test [2] (AQX-1125 repeated oral treatments once a day during 11 days at 0.3, 1 and 3 mg/kg) is recorded as “strong anti-nociceptive properties”; in test [4] (AQX-1125 3, 10 and 30 mg/kg p.o. once a day during 11 days), “strong anti-nociceptive properties”. Further, the “optimal dose for pain management” value in test [2] (rat model of carrageenan-induced chronic prostatitis, p.o.) was determined as 3 mg/kg. Moreover, the “ventral prostate lobes weight as a ratio of whole prostate weight” value in test [3] is given as “had no effect on ventral prostate lobes weights”. Further, the “ventral prostate lobes weight expressed in mg” value in test [3] was “had no effect on ventral prostate lobes weights”.
